Data taken from patent US9808434B2, “Compound for treating cancer and diabetes” (CITY OF HOPE, priority 2011, dated 2017).

Tests used:
A2058 = experiment: MTT assay, A2058; assay type: cell-based; conditions: Homo sapiens, A2058, 96 h
Method: Cell density measurements were performed using a hemocytometer to count reproductive cells resistant to staining with trypan blue. Approximately 20,000 cells were plated into each well of 96-well flat-bottomed micro-titer plates. After 12 h or 24 h incubation at 37° C., medium containing either COH-SR4 (ranging 0-200 μM) or elesclomol (ranging 0-20 μM) were added to the cells. After 24 h, 48 h or 96 h incubation, 20 μL of 5 mg/mL MTT were introduced to each well and incubated for 2 h. The plates were centrifuged and medium was decanted. Cells were subsequently dissolved in 100 μl DMSO with gentle shaking for 2 h at room temperature, followed by measurement of OD570 (91).

A375 = experiment: Colony formation assay, A375; assay type: cell-based, human; conditions: 5 μM
Method: Cell survival was evaluated using a standard colony-forming assay. In total, 1×10^5 cells/mL were incubated with COH-SR4 (1.5 μM or 5 μM) or elesclomol (5 μM) for 24 h, and aliquots of 50 or 100 μL were added to 60 mm size petri dishes, containing 4 mL culture medium. After 7 or 10 days, adherent colonies were fixed, stained with 0.5% methylene blue for 30 min and colonies were counted using the Innotech Alpha Imager HP (91).

[1] = tested on: B16-F0 mouse and A2058 human melanoma cells; experiment: Cell cycle FACS analysis, melanoma; assay type: cell-based; conditions: 18 h
Method: 2×10^5 cells were treated with COH-SR4 (0 μM, 5 μM or 10 μM) for 18 h at 37° C. After treatment, floating and adherent cells were collected, washed with PBS, and fixed with 70% ethanol. On the day of flow analysis, cell suspensions were centrifuged; counted and same numbers of cells were resuspended in 500 μL PBS in flow cytometry tubes. Cells were then incubated with 2.5 μL of RNase (stock 20 mg/mL) at 37° C. for 30 min after which they were treated with 10 μL of propidium iodide (stock 1 mg/mL) solution and then incubated at room temperature for 30 min in the dark. The stained cells were analyzed using the Beckman Coulter Cytomics FC500, Flow Cytometry Analyzer. Results were processed using CXP2.2 analysis software from Beckman Coulter.

GST = experiment: Total GST activity towards CDNB in H358 tumor tissue lysates; assay type: in vivo; conditions: n=3; control 0.32±0.03
Description: The effect of COH-SR4 on signaling pathways of relevance to lung cancer progression was further analyzed by Western-blots of lysates from resected tumors (as described in Example 31). GAPDH was used as internal control. The bar diagrams (FIG. 82B) represent the fold change in the levels of proteins as compared to the controls as determined by densitometry. Dotted line represents no significant change observed when compared to the controls. The COH-SR4 treated groups had high levels of cleaved-PARP compared to the untreated controls, which reinforces the finding of apoptotic effect as observed in-vitro by TUNEL assay. Akt is a signaling protein that transduces the proliferative signals from upstream integrins and growth factor receptors. The COH-SR4 treatments increased the levels of PARP cleavage along with decreased levels of pAkt (S^473). […] In accordance with decreased levels of pAkt (S^473), the levels of pP70S6K were decreased in COH-SR4 treated groups compared to controls. […] COH-SR4 treated tumor tissue lysates were analyzed to test the impact of long term COH-SR4 treatment in vivo on GST expression and activity. […] The total GST activity as measured by activity towards CDNB as a substrate, in COH-SR4 treated tumor tissue lysates was lower compared to the controls [control, 0.32±0.03 U/mg protein; COH-SR4 treated, 0.21±0.05 U/mg protein; (n=3)]. […]

AMPK, ACC = experiment: AMP:ATP ratio and AMPK/ACC phosphorylation in liver of db/db mice; assay type: in vivo, mouse; conditions: 5 weeks
Method: ATP production from cells treated with test compounds were measured using the Luminescent ATP Detection Assay Kit. AMP, ATP and ADP were measured by UV-HPLC.
All animal experiments were carried out in accordance with the protocols approved by the Institutional Animal Care and Use Committee of the City of Hope. Nine-week old male C57BL/6J mice fed on high fat diet (HFD, 60% fat) and 10-week old db/db mice were given COH-SR4 (5 mg/kg B.W.) or vehicle (corn oil) via oral gavage every other day for six and five weeks, respectively. Oral glucose tolerance test was performed on animals after an overnight fast. All other metabolic parameters were measured at the end of study. Liver samples were stained with H&E and Oil Red O.
Total intracellular ATP production in cells treated with either 5 μM COH-SR4 or 5 μM FCCP was measured by bioluminescence assay and expressed as percentage of time-matched vehicle (DMSO) control (FIG. 84A). Intracellular AMP: ATP ratios increased in HepG2 liver carcinoma cells following 1 h treatment with either 5 μM COH-SR4 or 5 μM FCCP (FIG. 84B) and in liver of db/db mice treated with COH-SR4 (5 mg/kg B.W.) for 5 weeks (FIG. 84C). All data represented are mean±SEM, *P<0.05.
Treatment with the AMPK inhibitor Compound C (20 μM) diminished AMPK activation and ACC phosphorylation by either uncoupler COH-SR4 or FCCP (FIG. 84F).

O=C(Nc1cc(Cl)cc(Cl)c1)Nc1cc(Cl)cc(Cl)c1 [COH-SR4, 1,3-bis(3,5-dichlorophenyl) urea]
IC50 (A2058): 11 ± 2 µM
colony formation (A375): 42±6%
cells accumulated in G2 phase (G2/M phase arrest) [1]: ~50%
total GST activity towards CDNB (GST): 0.21±0.05 U/mg protein
intracellular AMP:ATP ratios in liver (AMPK, ACC; 5 mg/kg B.W.): increased
AMPK and ACC phosphorylations in liver (AMPK, ACC): Increased AMPK and ACC phosphorylations
